Source: patent US5246947A, “Substituted pyridinylamino-1,2-benzisothiazoles and their use for treating depression” (Hoechst-Roussel Pharmaceuticals Incorporated, priority 1992, dated 1993)
Counter-ions that a name gives are not always drawn. Like-named read-outs stand apart in the source and are kept apart here.

Columns and labels:
α2-Receptor = biological target: T1, α2-Receptor (Rattus norvegicus, UniProt P22909); test: [^3 H]-Clonidine Binding: α2-Receptor; parameters: species or system rat (male Wistar)
T1 construct: the cortical tissue rapidly dissected; from tissue; host or cells: cortical tissue of male Wistar rats, washed membrane suspension
T1 sequence (P22909 1-465): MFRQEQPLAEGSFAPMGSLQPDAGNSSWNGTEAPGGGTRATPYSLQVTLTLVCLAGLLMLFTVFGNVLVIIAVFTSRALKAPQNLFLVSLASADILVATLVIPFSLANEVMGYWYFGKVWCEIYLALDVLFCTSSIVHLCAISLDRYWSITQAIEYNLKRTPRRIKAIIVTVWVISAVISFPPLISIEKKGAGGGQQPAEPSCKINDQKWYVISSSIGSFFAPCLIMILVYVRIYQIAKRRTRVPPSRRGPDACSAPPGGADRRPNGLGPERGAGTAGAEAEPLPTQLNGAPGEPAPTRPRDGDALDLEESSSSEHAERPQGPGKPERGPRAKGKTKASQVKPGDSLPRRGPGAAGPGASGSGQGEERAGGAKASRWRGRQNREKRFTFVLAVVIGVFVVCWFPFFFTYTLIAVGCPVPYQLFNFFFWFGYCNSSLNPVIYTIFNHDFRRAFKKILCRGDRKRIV
Procedure: [^3 H]-Clonidine Binding: α2 -Receptor
The purpose of this assay is to assess the interaction of compounds with central α2 -receptors.
a. 57.2 g Tris HCl 16.2 Tris Base-bring to 1 liter (0.5M Tris buffer, pH 7.7) b. Make a 1:10 dilution in distilled H2 O (0.05M Tris buffer, pH 7.7)
Tris buffer containing physiological ions b. Dilute 1:10 in distilled H2 O. This yields 0.05 M Tris HCl, pH 7.7; containing NaCl (120 mM), KCl (5 mM), CaCl2 (2 mM) and MgCl2 (1 mM) 3. [4-^3 H]-Clonidine hydrochloride (20-30 Ci/mmol) is obtained from New England Nuclear.
Clonidine-HCl is obtained from Boehringer Ingelheim. A stock solution of 0.1 mM clonidine is made up to determine nonspecific binding. This yields a final concentration of 1 μM in the assay (20 μl to 2 ml).
Male Wistar rats are sacrified by decapitation and the cortical tissue rapidly dissected. The tissue is homogenized in 50 volumes of 0.05M Tris buffer, pH 7.7 (buffer 1b) with the Brinkman Polytron, then centrifuged at 40,000 g for 15 minutes. […]
Tissue homogenates are incubated for 20 minutes at 25° C. with 3 nM [^3 H]-clonidine and varying drug concentrations, then immediately filtered under reduced pressure on Whatman GF/B filters. […] Ten ml of liquiscint counting solution is added to each sample which is then counted by liquid scintillation spectroscopy. […] IC50 values are calculated using log-probit analysis.

TPA-induced ear edema = test: TPA-Induced Ear Edema (TPAEE); type: in vivo, mouse (female Swiss Webster); conditions: topical, ear plug weight after about 5 hours, Table 3
Procedure: The dermatological activity of the compounds was ascertained according to the following method.
TPA-Induced Ear Edema (TPAEE)
The purpose of this assay was to determine the ability of a topically applied compound to prevent ear edema induced by topical application of TPA (phorbol 12-myristate acetate). Female Swiss Webster mice topically received TPA (10 μg/ear) on the right ear and vehicle on the left ear. […] After about 5 hours, the animals are sacrificed and a 4 mm diameter plug is taken from each ear and weighed. The difference between the right and left ear plug weights for each animal was determined. The antiinflammatory activity of the test compound is expressed as the mean percent change in ear plug weight of the treated animals compared to the mean percent change in the plug weight of the control animals. (Young, J. M. et al., J. Invest. Dermatol., 80 (1983), pp. 48-52.)

[1] = biological target: T2, Brain AChE (acetylcholinesterase) (Rattus norvegicus, UniProt P37136); test: biochemical; parameters: species or system rat (male Wistar); conditions: rat striatum; 5 mM acetylthiocholine final; pH 7.2; Table 1; read-out: Inhibitory Concentration Brain AChE
T2 construct: corpora striata dissected free, weighed and homogenized in 19 volumes; from tissue; host or cells: corpora striata of male Wistar rats, whole homogenate
T2 sequence (P37136 32-614): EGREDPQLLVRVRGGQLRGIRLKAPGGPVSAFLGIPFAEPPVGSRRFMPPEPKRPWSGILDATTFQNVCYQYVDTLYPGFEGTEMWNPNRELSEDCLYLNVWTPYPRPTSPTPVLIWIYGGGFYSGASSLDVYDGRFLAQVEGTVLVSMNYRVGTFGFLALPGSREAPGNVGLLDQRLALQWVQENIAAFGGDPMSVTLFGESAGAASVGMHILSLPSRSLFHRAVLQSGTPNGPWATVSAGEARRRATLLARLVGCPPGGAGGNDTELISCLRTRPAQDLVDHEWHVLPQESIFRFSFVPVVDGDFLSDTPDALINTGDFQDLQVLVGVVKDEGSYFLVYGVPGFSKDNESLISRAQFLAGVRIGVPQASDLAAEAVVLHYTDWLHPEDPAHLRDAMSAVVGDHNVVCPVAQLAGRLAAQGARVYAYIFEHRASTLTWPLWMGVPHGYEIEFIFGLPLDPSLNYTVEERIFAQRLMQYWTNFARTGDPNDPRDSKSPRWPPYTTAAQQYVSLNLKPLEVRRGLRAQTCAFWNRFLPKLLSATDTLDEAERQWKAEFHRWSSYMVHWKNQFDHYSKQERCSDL
Source text: Cholinesterases are found throughout the body, both in the brain and in serum. However, only brain acetylcholinesterase (AChE) distribution is correlated with central cholinergic innervation. […] We have determined in vitro inhibition of acetylcholinesterase activity in rat striatum according to the method described below.
In Vitro Inhibition of Acetylcholinesterase Activity in Rat Striatum
The method described below was used in this invention for assaying anticholinesterase activity. This is a modification of the method of Ellman et al., Biochem. Pharmacol. 7, 88 (1961).
1. 0.05M Phosphate buffer, pH 7.2
(c) add (a) to (b) until pH reaches 7.2
4. A 2 mM stock solution of the test drug is made up in a suitable solvent and brought to volume with 0.5 mM DTNB (reagent 3). Drugs are serially diluted (1:10) such that the final concentration (in cuvette) is 10^-4 M and screened for activity. If active, IC50 values are determined from the inhibitory activity of subsequent concentrations.
Enzyme activity is measured with the Beckman DU-50 spectrophotometer. This method can be used for IC50 determinations and for measuring kinetic constants.
Reagents are added to the blank and sample cuvettes as follows:
This program also calculates the rate of absorbance change for each cuvette.
Substrate concentration is 10 mM diluted 1:2 in assay yielding final concentration of 5 mM.

[2] = system: norepinephrine (NE) uptake; test: [^3 H]-Norepinephrine Uptake in Rat Whole Brain Synaptosomes; type: biochemical, rat (male CR Wistar); conditions: [^3 H]-NE 50 nM, 37° C., 5 min, Table 2
[3] = system: serotonin (5-hydroxytryptamine, 5HT) uptake; test: [^3 H]-Serotonin Uptake in Rat Whole Brain and Hypothalamic Synaptosomes; type: biochemical, rat (male CR Wistar); conditions: [^3 H]-5HT 50 nM, 37° C., 5 min, Table 2
Procedure: [^3 H]-Serotonin Uptake in Rat Whole Brain and Hypothalamic Synaptosomes
This activity is determined in an assay which measures [^3 H]-serotoninuptake in rat whole brain and hypothalamic synaptosomes.
Male CR Wistar rats (100-125 g)
Prepare a 1 liter batch containing the following salts.
3. A 0.1 mM stock solution of serotonin creatinine SO4 is made up in 0.01N HCl. This is used to dilute the specific activity of the radiolabeled 5HT.
4. 5-[1,2-^3 H(N)]-Hydroxytryptamine creatinine sulfate (serotonin), specific activity 20-30 Ci/mmol, is used.
The final desired concentration of [^3 H]-5HT in the assay is 50 nM. The dilution factor is 0.8. The KHBB is made up to contain 62.5 nM of [^3 H]-5HT.
5. For most assays, a 1 mM stock solution of the test compound is made up in a suitable solvent and serially diluted such that the final concentration in the assay ranges from 2×10^-8 to 2×10^-5 M. Seven concentrations are used for each assay.
Male Wistar rats are decapitated and the brain rapidly removed.
Tubes are incubated at 37° C. under a 95% O2 /5% CO2 atmosphere for 5 minutes. For each assay, 3 tubes are incubated with 20 μl of vehicle at 0° C. in an ice bath. After incubation all tubes are immediately centrifuged at 4000 g for 10 minutes. […] The tubes are vigorously vortexted, decanted into scintillation vials, and counted in 10 ml of Liquiscint scintillation counting cocktail. […]

Cn1ccc2cc(Nc3ccncc3)ccc21 [1-Methyl-5-(4-pyridinylamino)-1H-indole]
IC50 (α2-Receptor): 0.012 µM
Edema Reduction (TPA-induced ear edema; 10 μg/ear): -67%

CCCN(c1ccncc1)c1ccc2c(ccn2C)c1 [1-Methyl-5-(propyl-4-pyridinylamino)-1H-indole maleate]
IC50 [1]: 31.9 µM
IC50 (α2-Receptor; rat cortical tissue, 3 nM [^3 H]-clonidine, 25° C., 20 min, Table 2, read-out: [^3 H]-Clonidine Binding IC50): 0.33 µM
IC50 [2]: 34 nM
IC50 [3]: 0.76 µM

CN(C)CCC=C1c2ccccc2CCc2ccccc21 [Amitriptyline]
IC50 [2]: 7700 nM

COc1ccc2c(c1)c(CC(=O)O)c(C)n2C(=O)c1ccc(Cl)cc1 [Indomethacin, reference compound]
Edema Reduction (TPA-induced ear edema; at 1 mg/ear): -86%

CNCCC=C1c2ccccc2CCc2ccccc21 [Notriptyline]
IC50 [2]: 4000 nM
